Positions of bridges follow the written chain, without caps; N, C: chain ends. Residues, ends and D or L forms follow the SMILES beside them.
Key:
[1] = cited from earlier work
From the text: Along with increased knowledge of the pharmacological effects of these receptors, medical application of SST and its analogs has expanded. A considerable amount of effort has been made to develop new therapeutics for oncology of SSTRs. […] It was found recently that radiolabeled SSTR antagonists produced superi ...

SSTR4 [2] = biological target: T1, SSTR4 (Homo sapiens, UniProt P31391); experiment: Whole cell binding assay, SSTR4, competition with 125I-Tyr11-SST14, CHO-K1; parameters: expressed in transfected cells; settings: WT SSTR4, mean ± SEM
T1 sequence (P31391 whole entry): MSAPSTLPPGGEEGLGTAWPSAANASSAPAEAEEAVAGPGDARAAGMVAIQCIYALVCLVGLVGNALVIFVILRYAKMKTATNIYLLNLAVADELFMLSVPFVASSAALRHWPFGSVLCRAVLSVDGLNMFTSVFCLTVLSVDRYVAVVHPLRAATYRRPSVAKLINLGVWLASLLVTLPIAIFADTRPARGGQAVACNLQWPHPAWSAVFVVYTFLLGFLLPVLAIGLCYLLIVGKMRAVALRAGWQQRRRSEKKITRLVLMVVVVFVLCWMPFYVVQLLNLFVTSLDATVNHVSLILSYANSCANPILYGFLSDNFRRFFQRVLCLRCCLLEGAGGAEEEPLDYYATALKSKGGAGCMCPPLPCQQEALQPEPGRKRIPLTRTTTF
Method: (§1) For SSTR2 and SSTR4, CHO-K1 cells were cultured in F12 medium with 10% FBS and seeded at a density of 30,000 cells/well in Isoplate-96 plates (PerkinElmer). Twenty-four hours after transfection with the WT or mutant SSTR2/SSTR4, CHO-K1 cells were washed twice and incubated with blocking buffer (F12 supplemented with 25 mM HEPES and 0.1% (w/v) BSA, pH 7.4) for 2 h at 37 °C. […] Following incubation, cells were washed three times with ice-cold PBS and lysed by 50 μL lysis buffer (PBS supplemented with 20 mM Tris-HCl, 1% Triton X-100, pH 7.4). The radioactivity was subsequently counted (counts/min, CPM) in a scintillation counter (MicroBeta[2] Plate Counter, PerkinElmer) using a scintillation cocktail (OptiPhaseSuperMix, PerkinElmer). Data were analyzed by nonlinear regression using GraphPad PRISM 8.
(§2) aMutants represent that all mutations were introduced separately into the WT receptors
and expressed in CHO K1 cells.
(§3) bThe IC50 ratio was shown as IC50(mutant)/IC50(WT), indicating the shift between the WT
(§4) and mutant curves, reflecting the effect of the mutations on ligand binding.
(§5) cData are shown as mean ± S.E.M. form at least three independent experiments
(§6) performed in technical triplicate. One-way ANOVA was performed followed by
(§7) Dunnett’s post-test and compared with WT.
(§8) d The span is defined as the window between the maximal agonists response (Emax) and
(§9) e Sample size; the number of independent experiments performed in technical triplicate.

SSTR4 [3] = biological target: SSTR4 (Homo sapiens, UniProt P31391, Y301A); experiment: as above; parameters: expressed in transfected cells; settings: CHO-K1; SSTR4 mutant Y301^7.43A; mean ± SEM; read-out: Span
Sequence of SSTR4 (Homo sapiens, UniProt P31391, Y301A) (P31391 whole entry Y301A): as the sequence (P31391 whole entry) above, with Y301A counted along it
Method: as §1, §2
and expressed in CHO K1 cells.
as §3, §4, §5, §6, §7, §8, §9

SSTR4 [4] = biological target: T2, SSTR4 (Homo sapiens, UniProt P31391, N199A); experiment: as above; parameters: expressed in transfected cells; settings: CHO-K1; SSTR4 mutant N199^ECL2A; mean ± SEM; read-out: Span
T2 sequence (P31391 whole entry N199A): as the sequence (P31391 whole entry) above, with N199A counted along it
Method: as §1, §2
and expressed in CHO K1 cells.
as §3, §4, §5, §6, §7, §8, §9

SSTR4 [5] = biological target: T3, SSTR4 (Homo sapiens, UniProt P31391, M130A); experiment: as above; parameters: expressed in transfected cells; settings: CHO-K1; SSTR4 mutant M130^3.36A; mean ± SEM; read-out: Span
T3 sequence (P31391 whole entry M130A): as the sequence (P31391 whole entry) above, with M130A counted along it
Method: as §1, §2
and expressed in CHO K1 cells.
as §3, §4, §5, §6, §7, §8, §9

SSTR4 [6] = biological target: T4, SSTR4 (Homo sapiens, UniProt P31391, T215A); experiment: as above; parameters: expressed in transfected cells; settings: SSTR4 mutant T215^5.42A, mean ± SEM
T4 sequence (P31391 whole entry T215A): as the sequence (P31391 whole entry) above, with T215A counted along it
Method: as §1, §2
and expressed in CHO K1 cells.
as §3, §4, §5, §6, §7, §8, §9

SSTR4 [7] = biological target: SSTR4 (Homo sapiens, UniProt P31391, D126A); experiment: as above; parameters: expressed in transfected cells; settings: CHO-K1; SSTR4 mutant D126^3.32A; mean ± SEM; read-out: Span
Sequence of SSTR4 (Homo sapiens, UniProt P31391, D126A) (P31391 whole entry D126A): as the sequence (P31391 whole entry) above, with D126A counted along it
Method: as §1, §2
and expressed in CHO K1 cells.
as §3, §4, §5, §6, §7, §8, §9

SSTR4 [8] = biological target: T5, SSTR4 (Homo sapiens, UniProt P31391, Q279A); experiment: as above; parameters: expressed in transfected cells; settings: SSTR4 mutant Q279^6.55A, mean ± SEM
T5 sequence (P31391 whole entry Q279A): as the sequence (P31391 whole entry) above, with Q279A counted along it
Method: as §1, §2
and expressed in CHO K1 cells.
as §3, §4, §5, §6, §7, §8, §9

SSTR4 [9] = biological target: T6, SSTR4 (Homo sapiens, UniProt P31391, F275A); experiment: as above; parameters: expressed in transfected cells; settings: CHO-K1; SSTR4 mutant F275^6.51A; mean ± SEM; read-out: Span
T6 sequence (P31391 whole entry F275A): as the sequence (P31391 whole entry) above, with F275A counted along it
Method: as §1, §2
and expressed in CHO K1 cells.
as §3, §4, §5, §6, §7, §8, §9

SSTR4 [10] = biological target: SSTR4 (Homo sapiens, UniProt P31391, N293F); experiment: cAMP accumulation assay (agonist-induced inhibition of forskolin-stimulated cAMP), SSTR4, HEK293F; assay type: cell-based; settings: HEK293F; SSTR4 mutant N293^7.35F; mean ± SEM; read-out: Span;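 also: transiently transfected cells incubated 40 min at room temperature with 4 µM forskolin and graded ligand, cAMP read by LANCE Ultra TR-FRET kit, values normalized to WT receptor per ligand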
Sequence of SSTR4 (Homo sapiens, UniProt P31391, N293F) (P31391 whole entry N293F): as the sequence (P31391 whole entry) above, with N293F counted along it
Method: (§10) HEK293F cells were transiently transfected with WT or mutant SSTR2/SSTR4 using transfection reagent (PEI MAX 2000, Polysciences) and incubated at 37 °C in 5% CO2. Forty-eight hours after transfection, cells were centrifuged and resuspended in stimulation buffer (Hanks’ balanced salt solution (HBSS) supplemented with 5 mM HEPES, 0.5 mM IBMX and 0.1% (w/v) bovine serum albumin (BSA), pH 7.4) to a density of 200,000 cells/mL and added to 384-well white plates (PerkinElmer, 1000 cells/well). cAMP accumulation was measured by a LANCE Ultra cAMP kit (PerkinElmer) according to the manufacturer’s instructions. In brief, transfected cells were incubated for 40 min in stimulation buffer with 2.5 μL forskolin (SSTR2: 2 μM; SSTR4: 4 μM) and gradient concentration of ligand at RT. The reactions were stopped by addition of lysis buffer containing 5 μL Eu-cAMP tracer and 5 μL ULight-anti-cAMP. Plates were then incubated for 60 min at RT and time-resolved FRET signals were measured at 620 nm and 665 nm by an EnVision multilabel plate reader (PerkinElmer). Data were analyzed in GraphPad PRISM 8 and all values were normalized to the WT for each ligand. All outcomes were repeated at least three times.
(§11) aMutants represent that mutations were introduced separately into the WT receptors and
(§12) transiently expressed in HEK 293F cells.
(§13) bThe EC50 ratio was shown as EC50(mutant)/EC50(WT), indicating the shift between the WT
(§14) and mutant curves, reflecting the effect of the mutations on receptor signaling.
(§15) cData are shown as mean ± S.E.M. from at least three independent experiments
as §6
(§16) Dunnett’s post-test and compared with WT. The P value was defined as: *P<0.05;
as §8, §9
(§17) f Receptor expression level of HEK 293F cells was determined independently by flow
(§18) cytometry with anti-FLAG antibody and shown as per cent compared to the WT.

SSTR4 [11] = biological target: SSTR4 (Homo sapiens, UniProt P31391, S208W); experiment: as above; assay type: cell-based; settings: SSTR4 mutant S208^5.35W, mean ± SEM
Sequence of SSTR4 (Homo sapiens, UniProt P31391, S208W) (P31391 whole entry S208W): as the sequence (P31391 whole entry) above, with S208W counted along it
Method: as §10, §11, §12, §13, §14, §15, §6, §16, §8, §9, §17, §18

SSTR4 [12] = biological target: SSTR4 (Homo sapiens, UniProt P31391, R110A); experiment: as above; assay type: cell-based; settings: SSTR4 mutant R110^ECL1A, mean ± SEM
Sequence of SSTR4 (Homo sapiens, UniProt P31391, R110A) (P31391 whole entry R110A): as the sequence (P31391 whole entry) above, with R110A counted along it
Method: as §10, §11, §12, §13, §14, §15, §6, §16, §8, §9, §17, §18

SSTR4 [13] = biological target: T7, SSTR4 (Homo sapiens, UniProt P31391, F211A); experiment: as above; assay type: cell-based; settings: SSTR4 mutant F211^5.38A, mean ± SEM
T7 construct: expressed in transfected cells; host or cells: HEK293F
T7 sequence (P31391 whole entry F211A): as the sequence (P31391 whole entry) above, with F211A counted along it
Method: as §10, §11, §12, §13, §14, §15, §6, §16, §8, §9, §17, §18

SSTR4 [14] = biological target: T8, SSTR4 (Homo sapiens, UniProt P31391, N293A); experiment: as above; assay type: cell-based; settings: SSTR4 mutant N293^7.35A, mean ± SEM
T8 construct: expressed in transfected cells; host or cells: HEK293F
T8 sequence (P31391 whole entry N293A): as the sequence (P31391 whole entry) above, with N293A counted along it
Method: as §10, §11, §12, §13, §14, §15, §6, §16, §8, §9, §17, §18

SSTR4 [15] = biological target: T9, SSTR4 (Homo sapiens, UniProt P31391, N282A); experiment: as above; assay type: cell-based; settings: SSTR4 mutant N282^6.58A, mean ± SEM
T9 construct: expressed in transfected cells; host or cells: HEK293F
T9 sequence (P31391 whole entry N282A): as the sequence (P31391 whole entry) above, with N282A counted along it
Method: as §10, §11, §12, §13, §14, §15, §6, §16, §8, §9, §17, §18

SSTR4 [16] = biological target: T10, SSTR4 (Homo sapiens, UniProt P31391, L297A); experiment: as above; assay type: cell-based; settings: SSTR4 mutant L297^7.39A, mean ± SEM
T10 construct: expressed in transfected cells; host or cells: HEK293F
T10 sequence (P31391 whole entry L297A): as the sequence (P31391 whole entry) above, with L297A counted along it
Method: as §10, §11, §12, §13, §14, §15, §6, §16, §8, §9, §17, §18

SSTR4 [17] = biological target: T1, SSTR4; experiment: as above; assay type: cell-based; parameters: expressed in transfected cells; host or cells: HEK293F; settings: HEK293F, WT SSTR4, mean ± SEM
Method: as §10, §11, §12, §13, §14, §15, §6, §16, §8, §9, §17, §18

SSTR4 [18] = biological target: T2, SSTR4; experiment: as above; assay type: cell-based; parameters: expressed in transfected cells; host or cells: HEK293F; settings: SSTR4 mutant N199^ECL2A, mean ± SEM
Method: as §10, §11, §12, §13, §14, §15, §6, §16, §8, §9, §17, §18

SSTR4 [19] = biological target: T3, SSTR4; experiment: as above; assay type: cell-based; parameters: expressed in transfected cells; host or cells: HEK293F; settings: SSTR4 mutant M130^3.36A, mean ± SEM
Method: as §10, §11, §12, §13, §14, §15, §6, §16, §8, §9, §17, §18

SSTR4 [20] = biological target: T4, SSTR4; experiment: as above; assay type: cell-based; parameters: expressed in transfected cells; host or cells: HEK293F; settings: SSTR4 mutant T215^5.42A, mean ± SEM
Method: as §10, §11, §12, §13, §14, §15, §6, §16, §8, §9, §17, §18

SSTR4 [21] = biological target: T5, SSTR4; experiment: as above; assay type: cell-based; parameters: expressed in transfected cells; host or cells: HEK293F; settings: SSTR4 mutant Q279^6.55A, mean ± SEM
Method: as §10, §11, §12, §13, §14, §15, §6, §16, §8, §9, §17, §18

SSTR4 [22] = biological target: T6, SSTR4; experiment: as above; assay type: cell-based; parameters: expressed in transfected cells; host or cells: HEK293F; settings: SSTR4 mutant F275^6.51A, mean ± SEM
Method: as §10, §11, §12, §13, §14, §15, §6, §16, §8, §9, §17, §18

SSTR4 [23] = biological target: SSTR4 (Homo sapiens, UniProt P31391, S208A); experiment: Whole cell binding assay, SSTR4, competition with 125I-Tyr11-SST14, CHO-K1; settings: SSTR4 mutant S208^5.35A, mean ± SEM
Sequence of SSTR4 (Homo sapiens, UniProt P31391, S208A) (P31391 whole entry S208A): as the sequence (P31391 whole entry) above, with S208A counted along it
Method: as §1, §2
and expressed in CHO K1 cells.
as §3, §4, §5, §6, §7, §8, §9

SSTR4 [24] = biological target: T8, SSTR4; experiment: as above; settings: SSTR4 mutant N293^7.35A, mean ± SEM
Method: as §1, §2
and expressed in CHO K1 cells.
as §3, §4, §5, §6, §7, §8, §9

SSTR1–5 = settings: cited from earlier work
From the text: Somatostatin (SST), an inhibitory hormone that distributes widely in both human central nervous system and periphery tissues negatively regulates multiple hormone releases (growth hormone, glucagon, insulin, gastrin and cholecystokinin) and cell proliferation through SST receptors (SSTRs).[1]–[4] There are five types of SSTRs, namely SSTR1–SSTR5, which are divided into two subfamilies: SRIF1 (SSTR2, SSTR3, SSTR5) and SRIF2 (SSTR1, SSTR4) based on phylogenetic, sequence homology and ligand binding profiles.[5] Two bioactive SST peptides, SST-14 and its N-terminally extended form SST-28, have be ...

[25] = at least three independent experiments

Compound: SST: Somatostatin, an inhibitory hormone
- half-life [1]: less than 3 min

Compound: C[C@@H]1NC(=O)[C@H](Cc2ccccc2)NC(=O)[C@@H](N)CSSC[C@@H](C(=O)O)NC(=O)[C@H](Cc2ccccc2)NC(=O)[C@H]([C@@H](C)O)NC(=O)[C@H](CCCCN)NC(=O)[C@H](Cc2c[nH]c3ccccc23)NC1=O [Peptide3] (H-CFAWKTFC-OH; disulfide 1-8)
- Emax (SSTR4 [2]; CHO-K1, read-out: Span): 100 ± 7%
- IC50 (SSTR4 [2]; [25]): 3.8 nM
- Emax (SSTR4 [3]): 30 ± 16%
- Emax (SSTR4 [4]): 26 ± 7%
- Emax (SSTR4 [5]): 26 ± 5%
- Emax (SSTR4 [6]; CHO-K1, read-out: Span): 96 ± 15%
- IC50 (SSTR4 [6]): 0.0676 nM
- Emax (SSTR4 [7]): 23 ± 8%
- Emax (SSTR4 [8]; CHO-K1, read-out: Span): 45 ± 12%
- IC50 (SSTR4 [8]): 1.35 nM
- Emax (SSTR4 [9]): 23 ± 5%
- Emax (SSTR4 [10]): 16 ± 7%
- Emax (SSTR4 [11]; HEK293F, read-out: Span): 58 ± 6%
- EC50 (SSTR4 [11]): 1.12 nM
- Emax (SSTR4 [12]; HEK293F, read-out: Span): 100 ± 6%
- EC50 (SSTR4 [12]): 1.91 nM
- Emax (SSTR4 [13]; HEK293F, read-out: Span): 65 ± 5%
- EC50 (SSTR4 [13]): 145 nM
- Emax (SSTR4 [14]; HEK293F, read-out: Span): 106 ± 7%
- EC50 (SSTR4 [14]): 3.47 nM
- Emax (SSTR4 [15]; HEK293F, read-out: Span): 48 ± 2%
- EC50 (SSTR4 [15]): 2.34 nM
- Emax (SSTR4 [16]; HEK293F, read-out: Span): 99 ± 8%
- EC50 (SSTR4 [16]): 102 nM
- Emax (SSTR4 [17]; window between Emax and vehicle, read-out: Span): 100 ± 3%
- EC50 (SSTR4 [17]; [25]): 1.26 nM
- Emax (SSTR4 [18]; HEK293F, read-out: Span): 93 ± 6%
- EC50 (SSTR4 [18]): 15.1 nM
- Emax (SSTR4 [19]; HEK293F, read-out: Span): 72 ± 4%
- EC50 (SSTR4 [19]): 97.7 nM
- Emax (SSTR4 [20]; HEK293F, read-out: Span): 79 ± 6%
- EC50 (SSTR4 [20]): 0.479 nM
- Emax (SSTR4 [21]; HEK293F, read-out: Span): 77 ± 5%
- EC50 (SSTR4 [21]): 5.01 nM
- Emax (SSTR4 [22]; HEK293F, read-out: Span): 20 ± 5%
- EC50 (SSTR4 [22]): 676 nM
- Emax (SSTR4 [23]; CHO-K1, read-out: Span): 152 ± 11%
- IC50 (SSTR4 [23]): 0.0708 nM
- Emax (SSTR4 [24]; CHO-K1, read-out: Span): 132 ± 12%
- IC50 (SSTR4 [24]): 1.29 nM

Compound: SST-28: N-terminally extended form of bioactive SST peptide
- affinity for SSTR1–5 (SSTR1–5): high and equal affinity for SSTR1–5

Reference: paper PMC9343605, “Structural insights into ligand recognition and selectivity of somatostatin receptors” (Cell Research, 2022)
